The test system of the experiment is R2/PCFT4 (CHO). As to the kind of experiment: proliferation assay, R2/PCFT4 CHO cells expressing PCFT only. Format: cell-based, Chinese hamster. As to conditions: Cricetulus griseus, folate-/glycine-free RPMI1640 with 25 nM leucovorin, 96 h, drug 0-1000 nM, read-out: IC50s (SE) R2/PCFT4 (CHO).

One molecule from patent US20230091810A1, “FIRST-IN-CLASS OF SHMT2 AND MTHFD2 INHIBITORS AS ANTITUMOR AGENTS” (Duquesne University of the Holy Spirit, priority 2017, published 2023) can be followed below.

Protocol: Proliferation assays were performed with engineered Chinese hamster ovary (CHO) cell lines R2 (transporter-null), PC43-10 (expresses RFC only), RT16 (FRα only), and R2/PCFT4 (PCFT only) cultured in folate-/glycine-free RPMI1640 supplemented with 25 nM leucovorin.
Cell culture and proliferation/protection assays. […] Cell lines were verified by STR analysis by Genetica DNA Laboratories (Burlington, NC). MTXRIIOua^R2-4 (i.e. R2) Chinese hamster ovary (CHO) cells were generously provided by Dr. Wayne Flintoff (University of Western Ontario) (54). […]
For proliferation assays with the CHO cell lines, the cells were treated with drugs (0-1 µM) in a 96-well plate (2000 cells/well) in glycine-free, nucleoside-free folate-free RPMI supplemented with 10% dialyzed fetal bovine serum, 1% penicillin/streptomycin, 2 mM L-glutamine, and 25 nM leucovorin (final volume 200 µL) over a 96 h incubation period at 37° C. with 5% CO2. […] To quantify viable cells, the media was removed and plates were washed once with 100 µL Dulbecco’s Phosphate-Buffered Saline (PBS), after which 100 µL PBS and 20 µL Cell Titer-blue (Promega) were added. Relative cell numbers were proportional to the fluorescence measured with a fluorescence plate reader (590 nm emission, 560 nm excitation).

Consider `Nc1nc2ccn(CCCc3ccc(C(=O)N[C@@H](CCC(=O)O)C(=O)O)cc3)c2c(=O)[nH]1` [AGF291], for which the IC50 amounted to 282 nM.
